Experiments:
[1] = Biopharmaceutical classification / solubility statement; assay type: physicochemical
[2] = Absorption, distribution, metabolism and excretion after a single 1-mg oral dose of [14C]Compound (A); assay type: in vivo, human
Description: Primary phase 1 oxidative pathways included:
1) oxidative O-dealkylation; 2) oxidation at the phenyl cyclopropyl isoxazole moiety; 3) oxidation at the benzothiazole and fused ring structure. Metabolites containing multiple oxidative modifications and/or glucuronidation to oxidative products were also observed in human excreta.

SMILES: O=C(O)c1cc(F)c2nc(N3C4CC[C@H]3C[C@@H](OCc3c(-c5ccccc5OC(F)(F)F)noc3C3CC3)C4)sc2c1 [Compound (A), 2-[(1R,3r,5S)-3-({5-cyclopropyl-3-[2-(trifluoromethoxy)phenyl]-1,2-oxazol-4-yl}methoxy)-8-azabicyclo[3.2.1]octan-8-yl]-4-fluoro-1,3-benzothiazole-6-carboxylic acid]
- water solubility [1]: low water solubility
- biopharmaceutical classification system class ([1]; poorly soluble and poorly permeable compound): class IV
- Faecal excretion of related radioactivity [2]: ~65 % of the total dose
- Unchanged Compound (A) in the plasma [2]: ~92 % of total radioactivity
- urinary excretion of related radioactivity [2]: ~29 % of the total dose
- Mass balance, administered dose recovered in excreta ([2]; 312 hours collection period): approximately 94%
- half-life ([2]; human, plasma, read-out: half time (t1/2) in plasma (converted)): 13.5 h
- Cmax ([2]; human, plasma, read-out: maximum concentration (Cmax) of parent in plasma): 0.0335 µg/mL
- Tmax ([2]; human, plasma, read-out: median Tmax): 4 h

— patent publication US11291661B2, “Pharmaceutical composition” (priority 2019, dated 2022)
